From patent US20050153870A1, “Medicinal composition for diagnosis, prevention, or therapy of multiple risk factor syndrome” (priority 2002, published 2005)

Tested on: non-insulin dependent type II diabetes patients
Assay: Clinical test II
Assay type: in vivo, human
Conditions: for Body weight: week 0: 61.4 ± 10.21, in kg; for Serum neutral fat: week 0: 199.6 ± 88.29; for number of patients, Feeling of weariness Absent: before medication 0 of 25; for number of patients, Large amount of urine excretion Absent: before medication 0 of 30; for number of patients, Feeling of fatigue Absent: before medication 1 of 15; for number of patients, Throat dry Absent: before medication 1 of 30; for number of patients, Pain in the calf of leg Absent: before medication 4 of 16; for number of patients, Pain in the calf of leg Present: before medication 12 of 16; for number of patients, Feeling of fatigue Present: before medication 14 of 15; for number of patients, Feeling of weariness Present: before medication 25 of 25; for number of patients, Throat dry Present: before medication 29 of 30; for number of patients, Large amount of urine excretion Present: before medication 30 of 30
Procedure: On the other hand, Clinical test II was performed in a group of 79 participants from non-insulin dependent diabetic patients.
79 non-insulin dependent type II diabetes patients whose blood sugar is well-controlled under dietary therapy (all were mongoloid Japanese) participated in Clinical test II. They were forbidden to use sulfonyl urea and biguanide agent which is a therapeutic agent for type II diabetes, and a fibrate series medicament, nicotinic acid, and probucol which is a serum fat decreasing agent; however use of an antihypertensive agent is not particularly prohibited. They participated on a voluntary basis after they signed informed consent for clinical test participation, which was proposed by a medical institution based on the Helsinki declaration. The participants consisted of 26 males and 53 females. An average age at the sign-up time was 58±9.9 years old (average value±standard deviation), ranging from 37 to 81 years old. The body weight of patients was divided by standard body weight obtained from the standard body-weight table issued by Meiji life Insurance Company. This index was 1.24±0.154 (average value±standard deviation) at the sign-up time, meaning that there are many obese persons. After 12 weeks, the body weight index decreased to 1.18±0.137(average value±standard deviation).
The number of patients having normal blood pressure was 58 (of them, 31 patients were taking an antihypertensive agent).

[1] = 30 cases with diabetic complications

For `COc1c(Cl)c(C)c(C=O)c(O)c1C/C=C(C)/C=C/[C@@]1(C)[C@H](C)CCC(=O)[C@@H]1C` [4-O-methylascochlorin], the “Fasting blood sugar, change vs week 0” value (6 mg/kg, week 4) was −9.1% (n = 69), the “Serum neutral fat, change vs week 0” value (6 mg/kg, week 4) was −15.2% (n = 62) and the “Total serum cholesterol, change vs week 0” value (6 mg/kg, week 4) was −14.3% (n = 60). The Body weight (6 mg/kg, week 4) was 61.4 ± 9.63, the Fasting blood sugar (6 mg/kg, week 4, week 0: 162 ± 50.68) was 146.1 ± 41.06 and the Serum neutral fat (6 mg/kg, week 4) was 173.5 ± 71.25. For the same compound, the Total serum cholesterol (6 mg/kg, week 4, week 0: 265.3 ± 69.75) was 238.7 ± 51.33, the “Fasting blood sugar, change vs week 0” value (6 mg/kg, week 8) was −8.9% (n = 74) and the “Serum neutral fat, change vs week 0” value (6 mg/kg, week 8) was −22.7% (n = 59). The “Total serum cholesterol, change vs week 0” value (6 mg/kg, week 8) was −18.6% (n = 61), the Body weight (6 mg/kg, week 8) was 60.7 ± 8.88 and the Fasting blood sugar (6 mg/kg, week 8, week 0: 162 ± 50.68) was 147.9 ± 46.94. For the same compound, the Serum neutral fat (6 mg/kg, week 8) was 162.3 ± 65.89, the Total serum cholesterol (6 mg/kg, week 8, week 0: 265.3 ± 69.75) was 228.0 ± 43.65 and the “Fasting blood sugar, change vs week 0” value (6 mg/kg, week 12) was −10.8% (n = 71). The “Serum neutral fat, change vs week 0” value (6 mg/kg, week 12) was −21.8% (n = 69), the “Total serum cholesterol, change vs week 0” value (6 mg/kg, week 12) was −19.7% (n = 69) and the Body weight (6 mg/kg, week 12) was 60.3 ± 9.07. For the same compound, the Fasting blood sugar (6 mg/kg, week 12, week 0: 162 ± 50.68) was 142.2 ± 44.03, the Serum neutral fat (6 mg/kg, week 12) was 158.8 ± 73.28 and the Total serum cholesterol (6 mg/kg, week 12, week 0: 265.3 ± 69.75) was 220.04 ± 46.17. The “number of patients, Feeling of weariness Absent” value (shortened to “number … of weariness Absent”) (4th week) was 10, the “number of patients, Large amount of urine excretion Absent” value (“number … of urine excretion Absent” below) (4th week) was 16 and the “number of patients, Feeling of fatigue Absent” value (from here on “number … of fatigue Absent”) (4th week) was 5. For the same compound, the “number of patients, Throat dry Absent” value (4th week) was 16, the “number of patients, Pain in the calf of leg Absent” value (“number of patients … of leg Absent” for short) (4th week) was 9 and the “number of patients, Pain in the calf of leg Present” value (shortened to “number of patients … of leg Present”) (4th week) was 7. The “number of patients, Feeling of fatigue Present” value (“number … of fatigue Present” for short) (4th week) was 10, the “number of patients, Feeling of weariness Present” value (from here on “number … of weariness Present”) (4th week) was 15 and the “number of patients, Throat dry Present” value (4th week) was 14. For the same compound, the “number of patients, Large amount of urine excretion Present” value (“number … of urine excretion Present” below) (4th week) was 14, the “symptoms associated with diabetic nephropathy such as throat dry and excessive urination” value (5 excluded cases of type II diabetic patients having 10-20 year's disease history) was “disappeared from all patients” and the “number … of weariness Absent” value (8th week) was 19. The “number … of urine excretion Absent” value (8th week) was 22, the “number … of fatigue Absent” value (8th week) was 13 and the “number of patients, Throat dry Absent” value (8th week) was 23. The “number of patients … of leg Absent” value (8th week) was 10, the “number of patients … of leg Present” value (8th week) was 6 and the “number … of fatigue Present” value (8th week) was 2. For the same compound, the “number … of weariness Present” value (8th week) was 6, the “number of patients, Throat dry Present” value (8th week) was 7 and the “number … of urine excretion Present” value (8th week) was 8. For the same compound, the “decrease of body weight compared to before medication” value (12-week medication) was 0.9 kg, the “number … of weariness Absent” value (12th week) was 24 and the “number … of urine excretion Absent” value (12th week) was 29. For the same compound, the “number … of fatigue Absent” value (12th week) was 15, the “number of patients, Throat dry Absent” value (12th week) was 28 and the “number of patients … of leg Absent” value (12th week) was 14. The “number of patients … of leg Present” value (12th week) was 2, the “number … of fatigue Present” value (12th week) was 0 and the “number … of weariness Present” value (12th week) was 1. For the same compound, the “number of patients, Throat dry Present” value (12th week) was 2, the “number … of urine excretion Present” value (12th week) was 1 and the “feeling of fatigue, feeling of weariness, pain in the calf of leg (diabetic neuropathy)” value [1] was “improved these symptoms with the passage of time”. The “throat dry and excessive urination (symptoms of diabetic nephropathy)” value [1] was “significantly improved”, the “abnormality in the serum biological test, hematocyte test, and urine test” value (79 patients, 12-week medication) was “did not bring any abnormality” and the side effect (79 patients, 12-week medication, 6 mg/kg, transient, disappeared within a week) was “Two cases of light eruption”. The “Fasting blood sugar, change vs before medication” value (High blood sugar group FBS > 130 mg/dl, 4th week) was −11.3% (n = 45), the Fasting blood sugar (High blood sugar group FBS > 130 mg/dl, 4th week, before medication 187.6 ± 40.39) was 167.3 ± 34.50 mg/dL and the “Fasting blood sugar, change vs before medication” value (High blood sugar group FBS > 130 mg/dl, 8th week) was −11.8% (n = 49). For the same compound, the Fasting blood sugar (High blood sugar group FBS > 130 mg/dl, 8th week, before medication 187.6 ± 40.39) was 167.8 ± 44.82 mg/dL, the “Fasting blood sugar, change vs before medication” value (High blood sugar group FBS > 130 mg/dl, 12th week) was −13.8% (n = 46) and the Fasting blood sugar (High blood sugar group FBS > 130 mg/dl, 12th week, before medication 187.6 ± 40.39) was 161.7 ± 41.79 mg/dL. For the same compound, the “Total serum cholesterol, change vs before medication” value (High cholesterol group 300-200 mg/dl, 4th week) was −11.8% (n = 26), the Total serum cholesterol (High cholesterol group 300-200 mg/dl, 4th week, before medication 267.6 ± 23.66) was 240.8 ± 38.92 mg/dL and the “Total serum cholesterol, change vs before medication” value (High cholesterol group 300-200 mg/dl, 8th week) was −13.9% (n = 27). For the same compound, the Total serum cholesterol (High cholesterol group 300-200 mg/dl, 8th week, before medication 267.6 ± 23.66) was 232.4 ± 36.01 mg/dL, the “Total serum cholesterol, change vs before medication” value (High cholesterol group 300-200 mg/dl, 12th week) was −17.0% (n = 30) and the Total serum cholesterol (High cholesterol group 300-200 mg/dl, 12th week, before medication 267.6 ± 23.66) was 227.2 ± 45.36 mg/dL. The “Fasting blood sugar, change vs before medication” value (Normal blood sugar group FBS < 130 mg/dl, 4th week) was “ns (n = 24)”, the Fasting blood sugar (Normal blood sugar group FBS < 130 mg/dl, 4th week, before medication 108.8 ± 15.10) was 106.4 ± 13.48 mg/dL and the “Fasting blood sugar, change vs before medication” value (Normal blood sugar group FBS < 130 mg/dl, 8th week) was “ns (n = 25)”. For the same compound, the Fasting blood sugar (Normal blood sugar group FBS < 130 mg/dl, 8th week, before medication 108.8 ± 15.10) was 109.0 ± 17.34 mg/dL.
